Test results published in PubChem BioAssay AID256 (DTP/NCI, 2004).
Values joined by “and” are separate entries in the source; they are usually repeats but may differ in a detail not shown here. Identical values can stand only once. Inconclusive results and toxic doses are left out. Rule for the calls: active = survival T/C of 150% or more; inactive = T/C below 125% in these data.

Tested on: CD2F1 mice, L1210 leukemia ip, survival T/C
Assay: NCI In Vivo Anticancer Drug Screen. Data for tumor model L1210 Leukemia (intraperitoneal) in CD2F1 (CDF1) mice
Conditions: endpoint: mean survival time, higher = longer survival
Summary of the method: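 Each value reflects a quotient of treated over vehicle control outcomes in mice with a transplanted tumor.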

[1] = dose: 100.0 mg/kg/injection, schedule: Q04DX003 (ip), vehicle: Klucel (hydroxypropylcellulose) (HPC)
[2] = dose: 200.0 mg/kg/injection, schedule: Q04DX003 (ip), vehicle: Klucel (hydroxypropylcellulose) (HPC)
[3] = dose: 400.0 mg/kg/injection, schedule: Q04DX003 (ip), vehicle: Klucel (hydroxypropylcellulose) (HPC)
[4] = dose: 100.0 mg/kg/injection, schedule: Q04DX003 (ip), vehicle: saline
[5] = dose: 200.0 mg/kg/injection, schedule: Q04DX003 (ip), vehicle: saline
[6] = dose: 400.0 mg/kg/injection, schedule: Q04DX003 (ip), vehicle: saline
[7] = dose: 100.0 mg/kg/injection, schedule: Q01DX009 (ip), vehicle: saline with Tween-80
[8] = dose: 200.0 mg/kg/injection, schedule: Q01DX009 (ip), vehicle: saline with Tween-80
[9] = dose: 100.0 mg/kg/injection, schedule: Q04DX002 (ip), vehicle: saline with Tween-80
[10] = dose: 100.0 mg/kg/injection, schedule: Q01DX001 (ip), vehicle: saline
[11] = dose: 200.0 mg/kg/injection, schedule: Q01DX001 (ip), vehicle: saline

Measured: T/C

COC1OC2COC(c3ccccc3)OC2C(O)C1O (centres undefined)
inactive: [1] 105 % of control | [2] 95 % of control | [3] 95 % of control

Cc1csc2ncnc(N)c12
inactive: dose: 100.0 mg/kg/injection, schedule: Q01DX001 (ip), vehicle: saline with Tween-80 100 % of control | dose: 200.0 mg/kg/injection, schedule: Q01DX001 (ip), vehicle: saline with Tween-80 92 % of control | dose: 400.0 mg/kg/injection, schedule: Q01DX001 (ip), vehicle: saline with Tween-80 101 % of control

COC1C(O)C(O)C(O)C(O)C1O (centres undefined)
inactive: [4] 95 % of control | [5] 92 % of control | [6] 93 % of control

c1ccc(-c2cc(-c3ccccc3)n(-c3ccccc3)c2-c2ccccc2)cc1
inactive: [7] 88 % of control | [8] 94 % of control | dose: 400.0 mg/kg/injection, schedule: Q01DX009 (ip), vehicle: saline with Tween-80 88 % of control

Oc1ccc(/C=N/NC(=S)NN2CCOCC2)nc1
inactive: dose: 3.12 mg/kg/injection, schedule: Q01DX009 (ip), vehicle: Klucel (hydroxypropylcellulose) (HPC) 103 % of control | dose: 6.25 mg/kg/injection, schedule: Q01DX009 (ip), vehicle: Klucel (hydroxypropylcellulose) (HPC) 104 % of control | dose: 12.5 mg/kg/injection, schedule: Q01DX009 (ip), vehicle: Klucel (hydroxypropylcellulose) (HPC) 101 % of control | dose: 25.0 mg/kg/injection, schedule: Q01DX009 (ip), vehicle: Klucel (hydroxypropylcellulose) (HPC) 121 % of control | dose: 25.0 mg/kg/injection, schedule: Q04DX002 (ip), vehicle: saline with Tween-80 101 % of control | dose: 50.0 mg/kg/injection, schedule: Q01DX009 (ip), vehicle: Klucel (hydroxypropylcellulose) (HPC) 95 % of control | [9] 91 % of control and 94 % of control

O=CNc1ccc2c(c1)C(O)c1ccccc1-2 (centres undefined)
inactive: dose: 62.5 mg/kg/injection, schedule: Q04DX003 (ip), vehicle: saline with Tween-80 103 % of control | dose: 125.0 mg/kg/injection, schedule: Q04DX003 (ip), vehicle: saline with Tween-80 98 % of control | dose: 250.0 mg/kg/injection, schedule: Q04DX003 (ip), vehicle: saline with Tween-80 97 % of control

O=C(CNC(=O)Nc1cccc(C(F)(F)F)c1)N/N=C/c1ccco1
inactive: dose: 50.0 mg/kg/injection, schedule: Q01DX009 (ip), vehicle: saline with Tween-80 92 % of control | [7] 92 % of control | [8] 88 % of control

O=[N+]([O-])c1ccc(N/N=C/c2ccccn2)cc1
inactive: [1] 96 % of control | [2] 89 % of control | [3] 94 % of control

CCCCOCCSc1ccccc1
inactive: [10] 96 % of control | [11] 93 % of control

O=[N+]([O-])c1cccc2ccccc12
inactive: [4] 101 % of control | [5] 103 % of control | [6] 86 % of control

COc1ccc(CCNC2c3ccccc3C=Cc3ccccc32)cc1OC
inactive: dose: 50.0 mg/kg/injection, schedule: Q01DX001 (ip), vehicle: saline with Tween-80 107 % of control | [10] 91 % of control | [11] 100 % of control

O=C1c2ccccc2C(=O)c2c1cccc2N1CCOCC1
inactive: dose: 25.0 mg/kg/injection, schedule: Q04DX002 (ip), vehicle: Klucel (hydroxypropylcellulose) (HPC) 96 % of control | dose: 50.0 mg/kg/injection, schedule: Q04DX002 (ip), vehicle: Klucel (hydroxypropylcellulose) (HPC) 102 % of control | dose: 100.0 mg/kg/injection, schedule: Q04DX002 (ip), vehicle: Klucel (hydroxypropylcellulose) (HPC) 102 % of control | dose: 200.0 mg/kg/injection, schedule: Q04DX002 (ip), vehicle: Klucel (hydroxypropylcellulose) (HPC) 96 % of control

CCc1nc(N)nc(N)c1-c1ccc(Cl)cc1
inactive: dose: 2.0 mg/kg/injection, schedule: Q03HX008 (ip), vehicle: saline 92 % of control | dose: 2.0 mg/kg/injection, schedule: Q03HX016 (ip), vehicle: saline 89 % of control | dose: 2.0 mg/kg/injection, schedule: Q03HX024 (ip), vehicle: saline 88 % of control | dose: 4.0 mg/kg/injection, schedule: Q03HX008 (ip), vehicle: saline 90 % of control | dose: 4.0 mg/kg/injection, schedule: Q03HX016 (ip), vehicle: saline 91 % of control | dose: 4.0 mg/kg/injection, schedule: Q03HX024 (ip), vehicle: saline 86 % of control | dose: 8.0 mg/kg/injection, schedule: Q01DX009 (oral), vehicle: saline 92 % of control | dose: 8.0 mg/kg/injection, schedule: Q03HX008 (ip), vehicle: saline 92 % of control | dose: 8.0 mg/kg/injection, schedule: Q03HX016 (ip), vehicle: saline 87 % of control | dose: 8.0 mg/kg/injection, schedule: Q03HX024 (ip), vehicle: saline 88 % of control and 93 % of control | dose: 16.0 mg/kg/injection, schedule: Q01DX001 (ip), vehicle: saline 107 % of control | dose: 16.0 mg/kg/injection, schedule: Q01DX001 (oral), vehicle: saline 101 % of control | dose: 16.0 mg/kg/injection, schedule: Q01DX009 (ip), vehicle: saline 101 % of control | dose: 16.0 mg/kg/injection, schedule: Q01DX009 (oral), vehicle: saline 95 % of control | dose: 16.0 mg/kg/injection, schedule: Q03HX008 (ip), vehicle: saline 89 % of control and 91 % of control | dose: 16.0 mg/kg/injection, schedule: Q03HX016 (ip), vehicle: saline 91 % of control and 100 % of control | dose: 16.0 mg/kg/injection, schedule: Q03HX024 (ip), vehicle: saline 90 % of control and 96 % of control | dose: 16.0 mg/kg/injection, schedule: Q04DX003 (ip), vehicle: saline 88 % of control | dose: 16.0 mg/kg/injection, schedule: Q08DX002 (ip), vehicle: saline 97 % of control | dose: 32.0 mg/kg/injection, schedule: Q01DX001 (ip), vehicle: saline 98 % of control | dose: 32.0 mg/kg/injection, schedule: Q01DX001 (oral), vehicle: saline 96 % of control | dose: 32.0 mg/kg/injection, schedule: Q01DX009 (ip), vehicle: saline 106 % of control | dose: 32.0 mg/kg/injection, schedule: Q01DX009 (oral), vehicle: saline 112 % of control | dose: 32.0 mg/kg/injection, schedule: Q04DX003 (ip), vehicle: saline 87 % of control | dose: 32.0 mg/kg/injection, schedule: Q08DX002 (ip), vehicle: saline 94 % of control | dose: 64.0 mg/kg/injection, schedule: Q01DX001 (ip), vehicle: saline 100 % of control | dose: 64.0 mg/kg/injection, schedule: Q01DX001 (oral), vehicle: saline 98 % of control | dose: 64.0 mg/kg/injection, schedule: Q01DX009 (ip), vehicle: saline 108 % of control | dose: 64.0 mg/kg/injection, schedule: Q01DX009 (oral), vehicle: saline 120 % of control and 96 % of control | dose: 64.0 mg/kg/injection, schedule: Q04DX003 (ip), vehicle: saline 86 % of control and 95 % of control | dose: 64.0 mg/kg/injection, schedule: Q08DX002 (ip), vehicle: saline 95 % of control | dose: 128.0 mg/kg/injection, schedule: Q01DX001 (ip), vehicle: saline 100 % of control | dose: 128.0 mg/kg/injection, schedule: Q01DX001 (oral), vehicle: saline 91 % of control | dose: 128.0 mg/kg/injection, schedule: Q04DX003 (ip), vehicle: saline 96 % of control | dose: 128.0 mg/kg/injection, schedule: Q08DX002 (ip), vehicle: saline 93 % of control and 101 % of control

COc1ccc([N+](=O)[O-])cc1NC(=O)Nc1ccccc1Cl
inactive: [9] 86 % of control | dose: 200.0 mg/kg/injection, schedule: Q04DX002 (ip), vehicle: saline with Tween-80 93 % of control | dose: 400.0 mg/kg/injection, schedule: Q04DX002 (ip), vehicle: saline with Tween-80 104 % of control

CC(=O)O[C@H]1CC[C@@]2(C)C(=CC[C@H]3[C@@H]4CC[C@H](O)[C@@]4(C)CC[C@@H]32)C1
inactive: dose: 100.0 mg/kg/injection, schedule: Q01DX009 (ip), vehicle: Klucel (hydroxypropylcellulose) (HPC) 97 % of control | dose: 200.0 mg/kg/injection, schedule: Q01DX009 (ip), vehicle: Klucel (hydroxypropylcellulose) (HPC) 90 % of control | dose: 400.0 mg/kg/injection, schedule: Q01DX009 (ip), vehicle: Klucel (hydroxypropylcellulose) (HPC) 95 % of control

CC(C)(C)c1cccc(C(C)(C)C)c1O
inactive: dose: 100.0 mg/kg/injection, schedule: Q01DX009 (ip), vehicle: saline 95 % of control | dose: 200.0 mg/kg/injection, schedule: Q01DX009 (ip), vehicle: saline 94 % of control | dose: 400.0 mg/kg/injection, schedule: Q01DX009 (ip), vehicle: saline 106 % of control
